Data reported in PubChem BioAssay (NCI).
Values joined by “and” are separate entries in the source; they are usually repeats but may differ in a detail not shown here. Identical values can stand only once.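 Cultured in 96-well plates, cells were exposed to test compound for 48 hours across five concentrations. GI50 = concentration required for 50% inhibition of growth. TGI: total growth inhibition.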

Tests used:
Assay in all cases: NCI tumour cell line growth inhibition, 48 h
NCI-H226 lung = system: NCI-H226 lung
SK-MEL-28 melanoma = system: SK-MEL-28 melanoma
SF-295 CNS = system: SF-295 CNS
HCC-2998 colon = system: HCC-2998 colon
U251 CNS = system: U251 CNS
OVCAR-4 ovarian = system: OVCAR-4 ovarian
SF-539 CNS = system: SF-539 CNS
NCI-H23 lung = system: NCI-H23 lung
NCI-H522 lung = system: NCI-H522 lung
MCF7 breast = system: MCF7 breast

| Structure (SMILES) | GI50 (NCI-H226 lung) | TGI (NCI-H226 lung) | GI50 (SK-MEL-28 melanoma) | TGI (SK-MEL-28 melanoma) | GI50 (SF-295 CNS) [µM] | TGI (SF-295 CNS) | GI50 (HCC-2998 colon) | TGI (HCC-2998 colon) | GI50 (U251 CNS) | TGI (U251 CNS) | GI50 (OVCAR-4 ovarian) [µM] | TGI (OVCAR-4 ovarian) [µM] | GI50 (SF-539 CNS) [µM] | TGI (SF-539 CNS) [µM] | GI50 (NCI-H23 lung) | TGI (NCI-H23 lung) | GI50 (NCI-H522 lung) | TGI (NCI-H522 lung) | GI50 (MCF7 breast) | TGI (MCF7 breast) |
| --- | --- | --- | --- | --- | --- | --- | --- | --- | --- | --- | --- | --- | --- | --- | --- | --- | --- | --- | --- | --- |
| COc1cc(N2CCC(N)CC2)ccc1Nc1ncc(Cl)c(-c2c[nH]c3ccccc23)n1 | 0.334 µM | 3.59 µM | 1.31 µM | 2.64 µM | 1.54 | 3.31 µM | 0.649 µM | 2.23 µM | 0.407 µM | 1.79 µM | 0.235 | 3.66 | 0.437 | 1.7 | 0.925 µM | 3.06 µM | 0.447 µM | 1.85 µM | 0.0283 µM | 1.41 µM |
| O=c1/c(=C\c2ccc(Br)cc2)sc2n1C(c1ccc(Br)cc1)C1=C(N=2)c2ccc3ccccc3c2OCC1 (stereo unspecified) | > 100 µM | > 100 µM | > 100 µM | > 100 µM | > 100 | > 100 µM | > 100 µM | > 100 µM | > 100 µM | > 100 µM | > 100 | > 100 | > 100 | > 100 | > 100 µM | > 100 µM | > 100 µM | > 100 µM | > 100 µM | > 100 µM |
| COc1ccc(/C=C\c2cc(OC)c(OC)c(OC)c2)c(NS(=O)(=O)c2ccc(F)cc2)c1O | 0.142 µM | – | 0.484 µM | > 100 µM | 0.214 | > 45.9 µM | 0.169 µM | 6.9 µM | 0.142 µM | > 100 µM | 0.552 | > 100 | 0.0622 | 0.192 | 0.128 µM | > 62.4 µM | 0.222 µM | 15 µM | 0.0483 µM | > 46.3 µM |
| O=C(NN1C(=O)CSC1c1c(Cl)cccc1Cl)C(O)c1ccccc1 (stereo unspecified) | 38.1 µM | > 100 µM | 63.7 µM | > 100 µM | 37.3 | > 100 µM | 64.3 µM | > 100 µM | 37.3 µM | > 100 µM | 29.1 | > 100 | > 100 | > 100 | 19.9 µM | > 100 µM | 25.7 µM | > 100 µM | 44.2 µM | > 100 µM |
| COc1cc2c(cc1OCCCN1CCN(C(=S)SCCC(C#N)(c3ccccc3)c3ccccc3)CC1)N=C[C@@H]1CCCN1C2=O | 1.51 µM | 3.15 µM | 1.65 µM | 3.07 µM | 1.11 | 3.81 µM | 1.51 µM | 2.94 µM | 0.405 µM | 1.43 µM | 2.15 | > 43.7 | 1.45 | 3.37 | 1.07 µM | 2.7 µM | 0.523 µM | 2.43 µM | 0.33 µM | 1.53 µM |
| Nc1c(C(=O)Nc2cccc(C(F)(F)F)c2)sc2nc3c(cc12)CCCCCC3 | 1.76 µM | 11.9 µM | 3.36 µM | 15.9 µM | 1.58 | 3.6 µM | 12.3 µM | > 100 µM | 2.58 µM | 10.5 µM | 1.61 | 4 | 1.71 | 3.37 | 2.39 µM | 10.6 µM | 4.09 µM | 26.9 µM | 2.44 µM | 11.2 µM |
| COc1cc2c(cc1-c1coc3cc(O)ccc3c1=O)OCO2 | – | 40.2 µM | – | > 100 µM | – | 38.9 µM | – | > 100 µM | – | 45.9 µM | – | 44.3 | – | 48.6 | – | 40.3 µM | – | 36.2 µM | – | 90.9 µM |
| CC(=O)Nc1cc2c3c(cccc3c1)-c1ccccc1-2 | 37.8 µM | > 100 µM | > 100 µM | > 100 µM | 5.13 | 22.6 µM | 18.8 µM | 52.5 µM | 39.3 µM | > 100 µM | > 100 | > 100 | > 100 | > 100 | 38.5 µM | > 100 µM | > 100 µM | > 100 µM | > 100 µM | > 100 µM |
| Cc1cnc(-c2ccc(-c3ccc(NC(=O)Nc4c(F)cc(F)cc4F)cc3F)c3c2C(=O)NC3)[nH]1 | 4.2 µM and 6.26 µM | 39.9 µM and 36.5 µM | 1.16 µM and 0.642 µM | 9.69 µM and 5.48 µM | – | 18.8 µM and 18.4 µM | 2.01 µM and 1.61 µM | > 100 µM and 11.6 µM | 0.433 µM and 0.926 µM | 1.85 µM and 2.51 µM | 1.44 | 3.2 | 0.709 | 18.9 | 0.286 µM and 0.545 µM | 5.5 µM and 6.52 µM | 1.12 µM and 1.2 µM | 3.69 µM and 3.95 µM | 0.141 µM and 0.41 µM | 6.53 µM and 12.8 µM |
| COC(=O)Nc1nc2ccc(C(=O)c3ccc(F)cc3)cc2[nH]1 | 0.464 µM | 3.23 µM | 0.556 µM | > 100 µM | 0.094 | 0.966 µM | 0.173 µM | – | 0.287 µM | 6.68 µM | 1.21 | > 100 | 0.242 | 0.778 | 1.12 µM | 56.2 µM | 0.311 µM | – | 0.0867 µM | > 100 µM |
